Test systems include 786-0 renal; A498 renal; COLO 205 colon; DU-145 prostate; HS 578T breast; SF-539 CNS; SNB-19 CNS; SW-620 colon; T-47D breast; BT-549 breast.
Assay in all cases: inhibition of tumour cell growth, NCI panel, 48 h

Structures are written as SMILES.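 Where inhibition never reached the appropriate level, the endpoint shown equals the highest concentration tested. Otherwise, values were interpolated linearly from a five-concentration, 48-hour dose response in 96-well plates. TGI denotes the concentration required for complete inhibition of growth.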

`CN(C)C1COC2Cc3ccccc3C1O2` (stereo not given): the TGI with 786-0 renal, with A498 renal, in the experiment on COLO 205 colon, in the experiment on DU-145 prostate, in the experiment with HS 578T breast and in the experiment with SF-539 CNS was more than 100 µM throughout. The TGI with SNB-19 CNS, in the experiment with SW-620 colon and with T-47D breast was more than 100 µM each time.
Regarding `C/C(=C\c1ccc2c(c1)OCO2)[N+](=O)[O-]`, the TGI came out at 24.3 µM in the experiment with A498 renal; 4.2 µM in the experiment with COLO 205 colon; 8.05 µM in the experiment with DU-145 prostate; 45.8 µM with HS 578T breast; 9.24 µM in the experiment with SF-539 CNS; 6.98 µM in the experiment on SNB-19 CNS. Besides, the TGI is more than 100 µM in the experiment with SW-620 colon and 5.14 µM in the experiment on T-47D breast.
In the case of `COc1ccc(C2Oc3c(cccc3OC)C=C2[N+](=O)[O-])cc1` (stereo not given), the TGI in the experiment on 786-0 renal worked out at 4.98 µM; in the experiment on BT-549 breast, 4.32 µM; with COLO 205 colon, 6.95 µM; in the experiment with DU-145 prostate, 16.4 µM; with HS 578T breast, 8.82 µM; with SNB-19 CNS, 16.6 µM. Further, the TGI in the experiment on T-47D breast was 27.7 µM.
Turning to `O=C1c2ccc3ccccc3c2CCC1N1CCCCC1` (stereo not given), the TGI was determined as 32.1 µM in the experiment on 786-0 renal; 74.7 µM in the experiment with BT-549 breast; 42.1 µM in the experiment on COLO 205 colon; 30.3 µM with DU-145 prostate; 44.9 µM in the experiment with HS 578T breast; 28.8 µM in the experiment with SF-539 CNS. Also, the results for the TGI in the experiment on SNB-19 CNS, in the experiment on SW-620 colon and with T-47D breast were 40.8 µM, 34.5 µM and 54.3 µM, respectively.
On to `CC1(C)CC[C@]2(C(=O)O)CC[C@]3(C)C(=CC[C@@H]4[C@@]5(C)CC[C@@H]6OC(C)(C)OC[C@@]6(C)[C@@H]5CC[C@]43C)[C@H]2C1`, for which the TGI is 24 µM in the experiment on 786-0 renal; 51.7 µM with A498 renal; 28.8 µM with COLO 205 colon; 31.9 µM with DU-145 prostate; 33.5 µM in the experiment with SF-539 CNS; 96.2 µM in the experiment with SNB-19 CNS. The TGI in the experiment with SW-620 colon was determined as 29 µM; in the experiment with T-47D breast, 38.8 µM.
Take `N.N.N.N.O=S(=O)([O-])[O-].[Co+3].[OH3+].[OH3+]`: the TGI with 786-0 renal, in the experiment with A498 renal, with COLO 205 colon, in the experiment on SF-539 CNS, in the experiment with SNB-19 CNS and in the experiment on SW-620 colon was more than 100 µM each time.
In the case of `COc1cc(OC)nc(NC(=O)NS(=O)(=O)c2cccc3ncn(C)c(=O)c23)n1`, the TGI with 786-0 renal, with A498 renal, in the experiment with COLO 205 colon, in the experiment with DU-145 prostate, with HS 578T breast and in the experiment with SF-539 CNS was more than 100 µM each time. Moreover, the TGI in the experiment on SNB-19 CNS, in the experiment with SW-620 colon and with T-47D breast was more than 100 µM in each case.
For the compound `CC1OC2OC3C(OCC(O)C3O)OC(=O)[C@]34CCC(C)(C)CC3C3=CCC5[C@@]6(C)C[C@H](O)[C@H](OC7OC(CO)C(O)C(O)C7OC7OC(COC(=O)CC(C)(O)CC(=O)OC1C(O)C2O)C(O)C(O)C7O)[C@@](C)(CO)C6CC[C@@]5(C)[C@]3(C)CC4` (stereo not given in full), the TGI with 786-0 renal was 2.4 µM; in the experiment on BT-549 breast, 2.82 µM; in the experiment with COLO 205 colon it was 2.98 µM; with DU-145 prostate it was 3.02 µM; in the experiment on HS 578T breast it was 3.54 µM; with SF-539 CNS, 11.9 µM. The TGI in the experiment with SNB-19 CNS amounted to 3.18 µM; in the experiment with SW-620 colon, 2.44 µM; in the experiment on T-47D breast, 7.23 µM.
Take `O=C1CCC2(c3ccc(F)cc3)Nc3ncncc3N12` (stereo not given): the TGI with 786-0 renal, in the experiment on BT-549 breast, with DU-145 prostate, with HS 578T breast, in the experiment on SF-539 CNS and in the experiment with SNB-19 CNS was more than 10 µM in each case. The compound further registered a TGI with SW-620 colon of more than 10 µM.
Turning to `Cc1cc(-c2ccc(Cl)cc2)c(C#N)c(=S)n1C1OC(CO)C(O)C(O)C1O` (stereo not given), the TGI in the experiment with 786-0 renal, with A498 renal, with COLO 205 colon, in the experiment on DU-145 prostate, in the experiment with HS 578T breast and in the experiment with SF-539 CNS was more than 100 µM throughout. Further, the TGI with SNB-19 CNS, with SW-620 colon and in the experiment with T-47D breast was more than 100 µM throughout.
For the compound `COc1ccc(N=C2C(=Nc3ccc(OC)cc3)N(c3ccccc3[N+](=O)[O-])C(=S)N2c2ccc(OC)cc2)cc1`, the TGI was more than 100 µM in the experiment with 786-0 renal; more than 100 µM with BT-549 breast; 30.8 µM in the experiment on COLO 205 colon; more than 100 µM in the experiment on DU-145 prostate; more than 100 µM in the experiment on HS 578T breast; more than 100 µM with SF-539 CNS. The TGI in the experiment with SNB-19 CNS, with SW-620 colon and with T-47D breast was more than 100 µM throughout.
In the case of `CO/N=C/c1c(-c2ccc(Cl)cc2)c(/C=N/OC)n2c1sc1ccccc12`, the TGI in the experiment with 786-0 renal, with BT-549 breast, with COLO 205 colon, in the experiment on DU-145 prostate, in the experiment on HS 578T breast and in the experiment on SNB-19 CNS was more than 100 µM in each case. The TGI with SW-620 colon and in the experiment with T-47D breast was more than 100 µM throughout.
Regarding `CCC(/C=C/c1ccccc1)=N\N=C(\C=C\c1ccccc1)CC`, the TGI with 786-0 renal, in the experiment on A498 renal, in the experiment with COLO 205 colon, in the experiment on SNB-19 CNS and with SW-620 colon was more than 100 µM throughout.
For `Oc1ccc2c3c1OC1c4[nH]c5c(c4CC4(O)C(C2)N(CC2CC2)CC[C@]314)CC1(O)C2Cc3ccc(O)c4c3[C@@]1(CCN2CC1CC1)C5O4` (stereo not given in full), the TGI with 786-0 renal was 46 µM; in the experiment on A498 renal, 32.4 µM; with BT-549 breast, more than 100 µM; in the experiment on COLO 205 colon it was 35.6 µM; with DU-145 prostate, more than 100 µM; in the experiment with SNB-19 CNS, 64 µM. Further, the TGI in the experiment on SW-620 colon stood at 53.8 µM; with T-47D breast, 47.6 µM.
On to `Clc1cccc(Cl)c1C1SCc2nc3ncccc3n21` (stereo not given), for which the TGI in the experiment on 786-0 renal, in the experiment with A498 renal, in the experiment with COLO 205 colon, with DU-145 prostate, with HS 578T breast and with SF-539 CNS was more than 100 µM each time. Besides, the TGI in the experiment on SNB-19 CNS, with SW-620 colon and in the experiment with T-47D breast was more than 100 µM throughout.

The values are drawn from PubChem BioAssay (NCI).
